# In ChEMBL document CHEMBL3885881, “DrugMatrix”:
# Species on record: Rattus norvegicus
# Assay: DrugMatrix - Regimen: Daily Repeat
# Assay type: toxicity, organism-based, Sprague-Dawley
# Parameters: regimen Daily Repeat, gender Male, age 6-8 weeks
# Details: in vivo, po, route oral GAVAGE, vehicle .5 % CMC; for ABSOLUTE BASOPHIL / ABSOLUTE EOSINOPHIL / ABSOLUTE LYMPHOCYTE / ABSOLUTE MONOCYTE / ABSOLUTE SEGMENTED NEUTROPHIL / BASOPHIL / EOSINOPHIL / ERYTHROCYTE COUNT / HEMATOCRIT / HEMOGLOBIN / LEUKOCYTE COUNT / LYMPHOCYTE / MEAN CORPUSCULAR HEMOGLOBIN / MEAN CORPUSCULAR HEMOGLOBIN CONCENTRATION / MEAN CORPUSCULAR VOLUME / MONOCYTE / NEUTROPHIL / NUCLEATED RED BLOOD CELLS / PLATELET COUNT: tissue Blood; for ALANINE AMINOTRANSFERASE / ALBUMIN / ALKALINE PHOSPHATASE / ASPARTATE AMINOTRANSFERASE / BLOOD UREA NITROGEN / CARBON DIOXIDE / CHLORIDE / CHOLESTEROL / CREATINE PHOSPHOKINASE / CREATININE / GLUCOSE / LACTATE DEHYDROGENASE / LIPASE / PHOSPHORUS / POTASSIUM / SODIUM / TOTAL BILIRUBIN / TOTAL PROTEIN / URIC ACID: tissue Plasma
# [1] = 22 mg/kg, 72 h, dose level High, time 3 day
# [2] = 22 mg/kg, 120 h, dose level High, time 5 day
# [3] = […], 72 h, dose 2.2 mg/Kg, dose level Low, time 3 day
# [4] = […], 120 h, dose 2.2 mg/Kg, dose level Low, time 5 day
smiles,measurement,setting,value
Cc1cc(C(C#N)c2ccc(Cl)cc2)c(Cl)cc1NC(=O)c1cc(I)cc(I)c1O (configuration not stated) [CLOSANTEL],ABSOLUTE BASOPHIL,[1],0 CELLS/uL
same,ABSOLUTE EOSINOPHIL,[1],101.33 CELLS/uL
same,ABSOLUTE LYMPHOCYTE,[1],16742.67 CELLS/uL
same,ABSOLUTE MONOCYTE,[1],54 CELLS/uL
same,ABSOLUTE SEGMENTED NEUTROPHIL,[1],802 CELLS/uL
same,BASOPHIL,[1],0%
same,EOSINOPHIL,[1],0.67%
same,ERYTHROCYTE COUNT,[1],4.94 x10E6/uL
same,HEMATOCRIT,[1],31.43%
same,HEMOGLOBIN,[1],12.7 G/DL
same,LEUKOCYTE COUNT,[1],17.7 x10E3/uL
same,LYMPHOCYTE,[1],94.67%
same,MEAN CORPUSCULAR HEMOGLOBIN,[1],25.77 pg
same,MEAN CORPUSCULAR HEMOGLOBIN CONCENTRATION,[1],40.4 G/DL
same,MEAN CORPUSCULAR VOLUME,[1],63.77 fL
same,MONOCYTE,[1],0.33%
same,NEUTROPHIL,[1],4.33%
same,NUCLEATED RED BLOOD CELLS,[1],0 /100WBC
same,PLATELET COUNT,[1],1110.67 x10E3/uL
same,ALANINE AMINOTRANSFERASE,[1],49.67 u/L
same,ALBUMIN,[1],4.27 G/DL
same,ALKALINE PHOSPHATASE,[1],612.33 u/L
same,ASPARTATE AMINOTRANSFERASE,[1],122.67 u/L
same,BLOOD UREA NITROGEN,[1],16.33 mg/dL
same,CARBON DIOXIDE,[1],27.67 mmol/L
same,CHLORIDE,[1],103.67 MEQ/L
same,CHOLESTEROL,[1],73 mg/dL
same,CREATINE PHOSPHOKINASE,[1],369 u/L
same,CREATININE,[1],0.19 mg/dL
same,GLUCOSE,[1],171.33 mg/dL
same,LACTATE DEHYDROGENASE,[1],163.67 u/L
same,LIPASE,[1],9 u/L
same,PHOSPHORUS,[1],12.43 mg/dL
same,POTASSIUM,[1],6.8 MEQ/L
same,SODIUM,[1],145.83 MEQ/L
same,TOTAL BILIRUBIN,[1],0.2 mg/dL
same,TOTAL PROTEIN,[1],5.73 G/DL
same,URIC ACID,[1],2.13 mg/dL
same,ABSOLUTE BASOPHIL,[2],0 CELLS/uL
same,ABSOLUTE EOSINOPHIL,[2],0 CELLS/uL
same,ABSOLUTE LYMPHOCYTE,[2],18393.33 CELLS/uL
same,ABSOLUTE MONOCYTE,[2],203.33 CELLS/uL
same,ABSOLUTE SEGMENTED NEUTROPHIL,[2],2403.33 CELLS/uL
same,BASOPHIL,[2],0%
same,EOSINOPHIL,[2],0%
same,ERYTHROCYTE COUNT,[2],5.7 x10E6/uL
same,HEMATOCRIT,[2],36.13%
same,HEMOGLOBIN,[2],14.47 G/DL
same,LEUKOCYTE COUNT,[2],21 x10E3/uL
same,LYMPHOCYTE,[2],87.33%
same,MEAN CORPUSCULAR HEMOGLOBIN,[2],25.4 pg
same,MEAN CORPUSCULAR HEMOGLOBIN CONCENTRATION,[2],40.03 G/DL
same,MEAN CORPUSCULAR VOLUME,[2],63.4 fL
same,MONOCYTE,[2],1%
same,NEUTROPHIL,[2],11.67%
same,NUCLEATED RED BLOOD CELLS,[2],0.33 /100WBC
same,PLATELET COUNT,[2],1280.33 x10E3/uL
same,ALANINE AMINOTRANSFERASE,[2],76 u/L
same,ALBUMIN,[2],4.63 G/DL
same,ALKALINE PHOSPHATASE,[2],586.33 u/L
same,ASPARTATE AMINOTRANSFERASE,[2],169.33 u/L
same,BLOOD UREA NITROGEN,[2],25 mg/dL
same,CARBON DIOXIDE,[2],32 mmol/L
same,CHLORIDE,[2],101.67 MEQ/L
same,CHOLESTEROL,[2],84 mg/dL
same,CREATINE PHOSPHOKINASE,[2],365.33 u/L
same,CREATININE,[2],0.32 mg/dL
same,GLUCOSE,[2],141.67 mg/dL
same,LACTATE DEHYDROGENASE,[2],335.67 u/L
same,LIPASE,[2],11.67 u/L
same,PHOSPHORUS,[2],11.47 mg/dL
same,POTASSIUM,[2],7.16 MEQ/L
same,SODIUM,[2],143.5 MEQ/L
same,TOTAL BILIRUBIN,[2],0.2 mg/dL
same,TOTAL PROTEIN,[2],6 G/DL
same,URIC ACID,[2],1.9 mg/dL
same,ABSOLUTE BASOPHIL,[3],0 CELLS/uL
same,ABSOLUTE EOSINOPHIL,[3],27.33 CELLS/uL
same,ABSOLUTE LYMPHOCYTE,[3],7010.67 CELLS/uL
same,ABSOLUTE MONOCYTE,[3],50 CELLS/uL
same,ABSOLUTE SEGMENTED NEUTROPHIL,[3],645.33 CELLS/uL
same,BASOPHIL,[3],0%
same,EOSINOPHIL,[3],0.33%
same,ERYTHROCYTE COUNT,[3],5.2 x10E6/uL
same,HEMATOCRIT,[3],33.97%
same,HEMOGLOBIN,[3],13.53 G/DL
same,LEUKOCYTE COUNT,[3],7.73 x10E3/uL
same,LYMPHOCYTE,[3],90.33%
same,MEAN CORPUSCULAR HEMOGLOBIN,[3],26.1 pg
same,MEAN CORPUSCULAR HEMOGLOBIN CONCENTRATION,[3],39.83 G/DL
same,MEAN CORPUSCULAR VOLUME,[3],65.4 fL
same,MONOCYTE,[3],0.67%
same,NEUTROPHIL,[3],8.67%
same,NUCLEATED RED BLOOD CELLS,[3],0 /100WBC
same,PLATELET COUNT,[3],1123.67 x10E3/uL
same,ALANINE AMINOTRANSFERASE,[3],51 u/L
same,ALBUMIN,[3],4.37 G/DL
same,ALKALINE PHOSPHATASE,[3],453.33 u/L
same,ASPARTATE AMINOTRANSFERASE,[3],101.67 u/L
same,BLOOD UREA NITROGEN,[3],17.33 mg/dL
same,CARBON DIOXIDE,[3],35.33 mmol/L
same,CHLORIDE,[3],98.67 MEQ/L
same,CHOLESTEROL,[3],78.67 mg/dL
same,CREATINE PHOSPHOKINASE,[3],529.33 u/L
same,CREATININE,[3],0.26 mg/dL
same,GLUCOSE,[3],127 mg/dL
same,LACTATE DEHYDROGENASE,[3],156.67 u/L
same,LIPASE,[3],9.67 u/L
same,PHOSPHORUS,[3],11.27 mg/dL
same,POTASSIUM,[3],6.78 MEQ/L
same,SODIUM,[3],144.6 MEQ/L
same,TOTAL BILIRUBIN,[3],0.17 mg/dL
same,TOTAL PROTEIN,[3],6.27 G/DL
same,URIC ACID,[3],0.93 mg/dL
same,ABSOLUTE BASOPHIL,[4],0 CELLS/uL
same,ABSOLUTE EOSINOPHIL,[4],0 CELLS/uL
same,ABSOLUTE LYMPHOCYTE,[4],9886.33 CELLS/uL
same,ABSOLUTE MONOCYTE,[4],68.67 CELLS/uL
same,ABSOLUTE SEGMENTED NEUTROPHIL,[4],945 CELLS/uL
same,BASOPHIL,[4],0%
same,EOSINOPHIL,[4],0%
same,ERYTHROCYTE COUNT,[4],5.61 x10E6/uL
same,HEMATOCRIT,[4],35.17%
same,HEMOGLOBIN,[4],14 G/DL
same,LEUKOCYTE COUNT,[4],10.9 x10E3/uL
same,LYMPHOCYTE,[4],90.33%
same,MEAN CORPUSCULAR HEMOGLOBIN,[4],24.93 pg
same,MEAN CORPUSCULAR HEMOGLOBIN CONCENTRATION,[4],39.83 G/DL
same,MEAN CORPUSCULAR VOLUME,[4],62.63 fL
same,MONOCYTE,[4],0.67%
same,NEUTROPHIL,[4],9%
same,NUCLEATED RED BLOOD CELLS,[4],0 /100WBC
same,PLATELET COUNT,[4],1205.67 x10E3/uL
same,ALANINE AMINOTRANSFERASE,[4],49 u/L
same,ALBUMIN,[4],4.43 G/DL
same,ALKALINE PHOSPHATASE,[4],427.33 u/L
same,ASPARTATE AMINOTRANSFERASE,[4],75 u/L
same,BLOOD UREA NITROGEN,[4],18 mg/dL
same,CARBON DIOXIDE,[4],29.67 mmol/L
same,CHLORIDE,[4],103 MEQ/L
same,CHOLESTEROL,[4],72.33 mg/dL
same,CREATINE PHOSPHOKINASE,[4],164.33 u/L
same,CREATININE,[4],0.18 mg/dL
same,GLUCOSE,[4],146.67 mg/dL
same,LACTATE DEHYDROGENASE,[4],113.67 u/L
same,LIPASE,[4],8.33 u/L
same,PHOSPHORUS,[4],13.67 mg/dL
same,POTASSIUM,[4],7.15 MEQ/L
same,SODIUM,[4],146.83 MEQ/L
same,TOTAL BILIRUBIN,[4],0.23 mg/dL
same,TOTAL PROTEIN,[4],6.6 G/DL
same,URIC ACID,[4],1.7 mg/dL
